Converted amounts (≈) assume the structure as drawn.
Legend:
[1] = system: Plasmodium falciparum; test: Antiplasmodial activity after 48 hrs against chloroquine-resistant Plasmodium falciparum FcM29-Cameroon by [3H]hypoxanthine uptake; type: functional, organism-based
[2] = system: Candida albicans; test: Antifungal activity against Candida albicans ATCC 90028 after 48 hrs; type: functional; conditions: ATCC 90028, 48 h
[3] = system: Candida albicans; test: Antifungal activity against Candida albicans ATCC 90028 after 24 hrs; type: functional; conditions: ATCC 90028, 24 h

| Compound | IC50 [1] [µM] | MIC [2] [µg/mL] | MIC [3] [µg/mL] |
| --- | --- | --- | --- |
| C#CCOC/C=C(\C)CCC=C(C)C | 122 | > 200 | > 200 |
| C#CCOCC1=CC[C@@H](C(=C)C)CC1 | 33 | > 200 | > 200 |
| C#CCO[C@@H]1C[C@H](C)CC[C@H]1C(=C)C | 31 | > 200 | > 200 |
| C=C(C)[C@H]1CCC23COC=CC2C3C1 (stereo partly drawn) | > 100 | > 200 | > 200 |
| CC1CC(=O)O[C@@H]2C[C@H](C)CC[C@@H]12 (stereo partly drawn) | 470 | > 200 | > 200 |
| CC(C)=CCC[C@@]1(C)OCC2=CC(=O)CC21 (stereo partly drawn) | 1.8 | > 200 | > 200 |
| C=CC1=C(C)[C@@H]2CC[C@@H](C)C[C@H]2OC1 | > 100 | > 200 | > 200 |
| C#CCO[C@@](C)(C=C)CCC=C(C)C | 39 | > 200 | > 200 |
| C[C@@H]1CC[C@H]2[C@@H](C)C(=O)O[C@@H]3O[C@@]4(C)CC[C@@H]1[C@]32OO4 [ARTEMISININ] | 0.007 | > 200 | > 200 |
| CCN(CC)CCCC(C)Nc1ccnc2cc(Cl)ccc12 (stereo not drawn) [CHLOROQUINE] |  | > 200 | > 200 |
| CC(C)=CCCC(C)CCO (stereo not drawn) [CITRONELLOL] | 192 | > 200 | > 200 |
| C=C(C)[C@H]1CC=C(C)CC1 [D-LIMONENE] | 66 | > 200 | > 200 |
| Nc1nc(=O)[nH]cc1F [FLUCYTOSINE] |  | 0.75 (≈ 5.81 µM) |  |
| CC(C)=CCC/C(C)=C/CO [GERANIOL] | 52 | > 200 | > 200 |
| C=C(C)[C@@H]1CC[C@@H](C)C[C@H]1O [ISOPULEGOL] | 282 | > 200 | > 200 |
| C=CC(C)(O)CCC=C(C)C (stereo not drawn) [LINALOOL] | 519 | > 200 | > 200 |
| C=C(C)[C@@H]1CC=C(CO)CC1 [PERILLYL ALCOHOL] | 184 | > 200 | > 200 |

— ChEMBL document CHEMBL1137552, “Modifications of the chemical structure of terpenes in antiplasmodial and antifungal drug research” (Bioorg Med Chem Lett, 2007)
